Where two headings read alike, the source gives them in different places.
How the values were obtained:
[1] = Potentiating effect on noradrenaline; conditions: in vivo
Experimental: (§1) As stated above, the compounds of formula I have advantageous central nervous system stimulating properties. Side-effects, as they are encountered on administration of amphetamine-type stimulants, are produced to a much lesser extent by the 4,4-diphenylpiperidine compounds, if at all. […] The tests were carried out according to known and accepted pharmacological standard test methods.

Tachyphylaxis = conditions: in vivo
Experimental: as §1
g Tachyphylaxis None Pronounced

[2] = Increase in blood pressure; format: in vivo; conditions: rats and dogs
Experimental: as §1
pressure (rats and increase

[3] = Acute toxicity in the albino mouse; conditions: in vivo
Experimental: as §1
(§2) a Acute toxicity 150 mg./kg. 100 mg./kg.

albino mouse [4] = experiment: General behaviour of the albino mouse with different doses; format: in vivo; conditions: for Locomotory activity / Restlessness Stereotype / Salivation / Vigilance: different doses per os, Examples 28, 29: 50 to 300 mg/kg; for Sedation of animals (in words): mouse, in vivo
Experimental: Acute toxi- General behaviour of the albino
city in the mouse with different doses*
(§3) *drugs administered per os
(§4) **administered in doses from 50 to 300 mg/kg

albino mouse [5] = experiment: Antagonism in the albino mouse of reserpine (preventive and curative ptosis/sedation); format: in vivo; conditions: reserpine 2mg/kg sc.; for ED50: Mus musculus, po
Experimental: (§5) Antagonism in the albino mouse
(§6) Com- Preventive Curative catalepsy
(§7) of tion dation p.o.) i.p.)
as §3, §4

albino mouse [6] = experiment: Saliva secretion; format: in vivo
Experimental: as §1
No secretion Pronounced

albino mouse [7] = experiment: Locomotory activity (restlessness in movements); format: in vivo; conditions: albino mouse 5 mg/kg. perorally
Experimental: as §1

Exophthalmus = conditions: in vivo
Experimental: as §1
f Exophthalmus Absent Present

albino mouse [8] = experiment: Antagonism in the albino mouse of tremorine tremor; format: in vivo; conditions: tremorine 15 mg/kg i.p., drug per os, Examples 28, 29: 50 to 300 mg/kg; for ED50: Mus musculus, po
Experimental: as §5, §7, §3, §4

albino mouse [9] = experiment: Antagonism in the albino mouse of perphenazine catalepsy; format: in vivo; conditions: for ED50: Mus musculus, po, perphenazine 10 mg/kg p.o., drug per os, Examples 28, 29: 50 to 300 mg/kg; for Anticataleptic action (in words): mouse, in vivo
Experimental: as §5, §6, §7, §3, §4

[10] = Randall and Lehmann, J. Pharmacol. Exp. Therap. 93, 314 (1948), cited from earlier work
[11] = Marshall, Brit. J. Pharmacol. 10, 270 (1955), technique of Schild, cited from earlier work
albino mouse [12] = experiment: Acute toxicity in the albino mouse; conditions: mouse, in vivo
Experimental: as §1, §2

[13] = Potentiation of the effect of hexobarbital; conditions: in vivo
Source text: (§8) These compounds are useful as neuroleptics.

Neuroleptic effects = conditions: in vivo
Source text: as §8

[14] = mouse, iv, Table 2, i.v., read-out: Acute toxicity in the albino mouse LD50 i.v.
[15] = mouse, po, Table 2, p.o., read-out: Acute toxicity in the albino mouse LD50 p.o.
[16] = drug per os, Examples 28, 29: 50 to 300 mg/kg, read-out: Reserpine antagonism, Curative Sedation ED50
[17] = drug per os, Examples 28, 29: 50 to 300 mg/kg, read-out: Reserpine antagonism, Curative ptosis ED50
[18] = drug per os, read-out: Reserpine antagonism, Preventive Sedation ED50
[19] = drug per os, read-out: Reserpine antagonism, Preventive ptosis ED50
[20] = listed as 1 methyl-4,4-diphenylpiperidine
[21] = doses from 50 to 300 mg/kg per os
[22] = 18 h, doses from 50 to 300 mg/kg per os
[23] = 18 h, doses from 50 to 300 mg/kg per os, read-out: Reserpine antagonism, Preventive Sedation ED50, 18 h
[24] = drug per os, Examples 28, 29: 50 to 300 mg/kg

SMILES | Potentiating effect on noradrenaline [1] | Tachyphylaxis (Tachyphylaxis) | Increase in blood pressure [2] | LD50 [3, 14] [mg/kg] | LD50 [3, 15] [mg/kg] | Locomotory activity (albino mouse [4]; albino mouse) | Restlessness Stereotype (albino mouse [4]; albino mouse) | Salivation (albino mouse [4]; albino mouse) | Vigilance (albino mouse [4]; albino mouse) | ED50 (albino mouse [5]; [16]) [mg/kg] | ED50 (albino mouse [5]; [17]) [mg/kg] | ED50 (albino mouse [5]; [18]) [mg/kg] | ED50 (albino mouse [5]; [19]) [mg/kg] | Saliva secretion (albino mouse [6]) | Locomotory activity (restlessness in movements), increase by (albino mouse [7]) [%] | Exophthalmus (Exophthalmus) | ED50 (albino mouse [8]) [mg/kg] | ED50 (albino mouse [9]) [mg/kg] | Vigilance of the animal (in words) (albino mouse [4]; albino mouse) | Acute toxicity (in words) (albino mouse [12]) | further results
CC(C)N1CCC(c2ccccc2)(c2ccccc2)CC1 [Example 4, 1-Isopropyl-4,4-diphenylpiperidine] | Present | None | Slight increase | 20 | 150 | (+) | .phi. (no effect) | .phi. (no effect) | ++ | 13 | > 50 | 3 | 16 | No secretion | 20 | Absent | 1.5 | 7 | – | – | –
CN1CCC(c2ccccc2)(c2ccccc2)CC1 [Example 1, 1-Methyl-4,4-diphenylpiperidine] | – | – | – | 45 | 140 | (+) | .phi. (no effect) | .phi. (no effect) | ++ | 10 | > 50 | 3 | 4 | – | – | – | 1 | 3 | strong increase | – | Locomotory activity (in words) (albino mouse [4]; albino mouse): only slightly increased; Restlessness, stereotypia or salivation (in words) (albino mouse [4]; albino mouse): without causing restlessness, sterotypia or salivation; Analgesic activity ([10]; listed as 1-methyl-4,4-diphenylpiperidine): devoid of analgesic activity; Analgesic activity [10, 20]: devoid of analgesic action; Antihistaminic activity ([11]; listed as 1-Methyl-4,4-diphenylpiperidine): devoid of any therapeutically utilizable antihistaminic activity; Antihistaminic activity [11, 20]: devoid of any therapeutically-utilizable antihistaminic activity
O=C(CCCN1CCC(c2ccccc2)(c2ccccc2)CC1)c1ccccc1 [Example 29, 1-(3-Benzoylpropyl)-4,4-diphenylpiperidine] | – | – | – | – | – | - (decrease) | .phi. (no effect) | .phi. (no effect) | - (decrease) | – | – | – | – | – | – | – | – | 50 | somewhat reduce vigilance | very low acute toxicity | Sedation of animals (in words) (albino mouse [4]): induce sedation; Effect on hexobarbital (in words) [13]: potentiate the effect of hexobarbital; Neuroleptic effects (in words) (Neuroleptic effects): exhibit neuroleptic effects; Reserpine antagonism, Preventive Sedation ED50, 3 h (albino mouse [5]; [21]): .phi. (no effect); Reserpine antagonism, Preventive ptosis ED50, 3 h (albino mouse [5]; [21]): .phi. (no effect); Reserpine antagonism, Preventive ptosis ED50, 18 h (albino mouse [5]; [22]): .phi. (no effect); ED50 (albino mouse [5]; [23]): 100 mg/kg; Reserpine antagonism, Curative Sedation ED50 (albino mouse [5]; [24]): .phi. (no effect); Reserpine antagonism, Curative ptosis ED50 (albino mouse [5]; [24]): .phi. (no effect); Tremorine tremor antagonism ED50 (albino mouse [8]): .phi. (no effect); Anticataleptic action (in words) (albino mouse [9]): exhibit anticataleptic action
O=C(CCCN1CCC(c2ccccc2)(c2ccccc2)CC1)c1ccc(F)cc1 [Example 28, 1-[3-(p-Fluorobenzoyl)propyl]-4,4-diphenylpiperidine] | – | – | – | – | 3800 | - (decrease) | .phi. (no effect) | .phi. (no effect) | - (decrease) | – | – | – | – | – | – | – | – | 50 | somewhat reduce vigilance | very low acute toxicity | Sedation of animals (in words) (albino mouse [4]): induce sedation; Effect on hexobarbital (in words) [13]: potentiate the effect of hexobarbital; Neuroleptic effects (in words) (Neuroleptic effects): exhibit neuroleptic effects; Reserpine antagonism, Preventive Sedation ED50, 3 h (albino mouse [5]; [21]): .phi. (no effect); Reserpine antagonism, Preventive ptosis ED50, 3 h (albino mouse [5]; [21]): .phi. (no effect); Reserpine antagonism, Preventive ptosis ED50, 18 h (albino mouse [5]; [22]): .phi. (no effect); ED50 (albino mouse [5]; [23]): 300 mg/kg; Reserpine antagonism, Curative Sedation ED50 (albino mouse [5]; [24]): .phi. (no effect); Reserpine antagonism, Curative ptosis ED50 (albino mouse [5]; [24]): .phi. (no effect); Tremorine tremor antagonism ED50 (albino mouse [8]): .phi. (no effect); Anticataleptic action (in words) (albino mouse [9]): exhibit anticataleptic action
CC(N)Cc1ccccc1 (stereo not drawn) [Amphetamine, reference compound] | Present | Pronounced | Pronounced | – | – | – | – | – | – | – | – | – | – | Pronounced | 100 | Present | – | – | – | – | LD50 ([3]; po, Table 1, albino mouse perorally, read-out: Acute toxicity): 100 mg/kg
